PubChem BioAssay (NCI)
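Step 1: Grow cells in 96-well plates. Step 2: Expose to compound for 48 hours at 5 concentrations. Step 3: Interpolate endpoints linearly; if unreached, use highest concentration. TGI is the concentration that stops growth completely.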

How the values were obtained:
Test in all cases: growth of human tumour cells (NCI), 48 h
786-0 renal = test system: 786-0 renal
A498 renal = test system: A498 renal
A549 NSCLC = test system: A549 NSCLC
ACHN renal = test system: ACHN renal
BT-549 breast = test system: BT-549 breast
CAKI-1 renal = test system: CAKI-1 renal
CCRF-CEM leukemia = test system: CCRF-CEM leukemia
COLO 205 colon = test system: COLO 205 colon
DU-145 prostate = test system: DU-145 prostate
EKVX NSCLC = test system: EKVX NSCLC
HCT-116 colon = test system: HCT-116 colon
HCT-15 colon = test system: HCT-15 colon
HL-60(TB) leukemia = test system: HL-60(TB) leukemia
HOP-62 NSCLC = test system: HOP-62 NSCLC
HOP-92 NSCLC = test system: HOP-92 NSCLC
HS 578T breast = test system: HS 578T breast
HT29 colon = test system: HT29 colon
IGROV1 ovarian = test system: IGROV1 ovarian
K-562 leukemia = test system: K-562 leukemia
KM12 colon = test system: KM12 colon
M14 melanoma = test system: M14 melanoma
MALME-3M melanoma = test system: MALME-3M melanoma
MCF7 breast = test system: MCF7 breast
MDA-MB-231 breast = test system: MDA-MB-231 breast
MDA-MB-435 = test system: MDA-MB-435
MDA-N = test system: MDA-N
MOLT-4 leukemia = test system: MOLT-4 leukemia
NCI-H226 lung = test system: NCI-H226 lung
NCI-H23 lung = test system: NCI-H23 lung
NCI-H460 lung = test system: NCI-H460 lung
NCI-H522 lung = test system: NCI-H522 lung
NCI/ADR-RES ovarian = test system: NCI/ADR-RES ovarian
OVCAR-3 ovarian = test system: OVCAR-3 ovarian
OVCAR-4 ovarian = test system: OVCAR-4 ovarian
OVCAR-5 ovarian = test system: OVCAR-5 ovarian
OVCAR-8 ovarian = test system: OVCAR-8 ovarian
PC-3 prostate = test system: PC-3 prostate
RPMI-8226 leukemia = test system: RPMI-8226 leukemia
RXF 393 renal = test system: RXF 393 renal
SF-268 CNS = test system: SF-268 CNS
SF-295 CNS = test system: SF-295 CNS
SF-539 CNS = test system: SF-539 CNS
SK-MEL-2 melanoma = test system: SK-MEL-2 melanoma
SK-MEL-28 melanoma = test system: SK-MEL-28 melanoma
SK-MEL-5 melanoma = test system: SK-MEL-5 melanoma
SK-OV-3 ovarian = test system: SK-OV-3 ovarian
SN12C renal = test system: SN12C renal
SNB-19 CNS = test system: SNB-19 CNS
SNB-75 CNS = test system: SNB-75 CNS
SR leukemia = test system: SR leukemia
SW-620 colon = test system: SW-620 colon
T-47D breast = test system: T-47D breast
U251 CNS = test system: U251 CNS
UACC-257 melanoma = test system: UACC-257 melanoma
UACC-62 melanoma = test system: UACC-62 melanoma
UO-31 renal = test system: UO-31 renal
HCC-2998 colon = test system: HCC-2998 colon
LOX IMVI melanoma = test system: LOX IMVI melanoma
TK-10 renal = test system: TK-10 renal

Measured: TGI

C1=Nc2ccc(cc2)-c2ccc(cc2)N=Cc2ccc(cc2)OCc2cccc(n2)COc2ccc1cc2
73.2 µM: HS 578T breast
> 100 µM: 786-0 renal | A498 renal | A549 NSCLC | ACHN renal | BT-549 breast | CAKI-1 renal | CCRF-CEM leukemia | COLO 205 colon | DU-145 prostate | EKVX NSCLC | HCT-116 colon | HCT-15 colon | HL-60(TB) leukemia | HOP-62 NSCLC | HOP-92 NSCLC | HT29 colon | IGROV1 ovarian | K-562 leukemia | KM12 colon | M14 melanoma | MALME-3M melanoma | MCF7 breast | MDA-MB-231 breast | MDA-MB-435 | MDA-N | MOLT-4 leukemia | NCI-H226 lung | NCI-H23 lung | NCI-H460 lung | NCI-H522 lung | NCI/ADR-RES ovarian | OVCAR-3 ovarian | OVCAR-4 ovarian | OVCAR-5 ovarian | OVCAR-8 ovarian | PC-3 prostate | RPMI-8226 leukemia | RXF 393 renal | SF-295 CNS | SF-539 CNS | SK-MEL-2 melanoma | SK-MEL-28 melanoma | SK-MEL-5 melanoma | SK-OV-3 ovarian | SN12C renal | SNB-19 CNS | SNB-75 CNS | SR leukemia | SW-620 colon | T-47D breast | U251 CNS | UACC-257 melanoma | UACC-62 melanoma | UO-31 renal
62.1 µM: SF-268 CNS

Cc1cc(S(=O)(=O)NC2=NCCCN2)c(S)cc1Cl
94.1 µM: HCT-116 colon
42.6 µM: LOX IMVI melanoma
75.9 µM: K-562 leukemia
56.4 µM: 786-0 renal
> 100 µM: A498 renal | ACHN renal | CAKI-1 renal | COLO 205 colon | DU-145 prostate | EKVX NSCLC | HCC-2998 colon | HCT-15 colon | HOP-62 NSCLC | IGROV1 ovarian | KM12 colon | MDA-MB-231 breast | MDA-N | NCI-H460 lung | NCI/ADR-RES ovarian | OVCAR-3 ovarian | OVCAR-4 ovarian | OVCAR-5 ovarian | PC-3 prostate | RXF 393 renal | SF-268 CNS | SF-539 CNS | SK-MEL-28 melanoma | SK-OV-3 ovarian | SN12C renal | SNB-19 CNS | SNB-75 CNS | T-47D breast | U251 CNS | UACC-257 melanoma | UO-31 renal
32.4 µM: SK-MEL-5 melanoma
36.4 µM: BT-549 breast
49.6 µM: HT29 colon
74.7 µM: TK-10 renal
67.6 µM: OVCAR-8 ovarian
54.7 µM: MDA-MB-435
62.8 µM: NCI-H522 lung
37.8 µM: SW-620 colon
56.1 µM: SR leukemia
53.9 µM: A549 NSCLC
86.1 µM: M14 melanoma
86.7 µM: HS 578T breast
72.4 µM: MALME-3M melanoma
88.2 µM: NCI-H226 lung
45.9 µM: HL-60(TB) leukemia
77.7 µM: SK-MEL-2 melanoma
90.3 µM: UACC-62 melanoma

CN(/N=C/C=N/N(C)C1=NCCCN1)C1=NCCCN1
> 100 µM: 786-0 renal | A549 NSCLC | ACHN renal | BT-549 breast | CAKI-1 renal | CCRF-CEM leukemia | COLO 205 colon | EKVX NSCLC | HCC-2998 colon | HCT-116 colon | HCT-15 colon | HOP-62 NSCLC | HOP-92 NSCLC | HS 578T breast | HT29 colon | IGROV1 ovarian | K-562 leukemia | KM12 colon | LOX IMVI melanoma | M14 melanoma | MALME-3M melanoma | MCF7 breast | MDA-MB-231 breast | MDA-MB-435 | MDA-N | MOLT-4 leukemia | NCI-H226 lung | NCI-H23 lung | NCI-H460 lung | NCI-H522 lung | NCI/ADR-RES ovarian | OVCAR-3 ovarian | OVCAR-4 ovarian | OVCAR-5 ovarian | OVCAR-8 ovarian | PC-3 prostate | RXF 393 renal | SF-268 CNS | SF-295 CNS | SF-539 CNS | SK-MEL-28 melanoma | SK-MEL-5 melanoma | SK-OV-3 ovarian | SN12C renal | SNB-19 CNS | SNB-75 CNS | SR leukemia | SW-620 colon | TK-10 renal | U251 CNS | UACC-257 melanoma | UACC-62 melanoma | UO-31 renal

Cc1c(NC(=O)Nc2c(Cl)cccc2Cl)c(=O)n(-c2ccccc2)n1C
> 100 µM: 786-0 renal | A498 renal | A549 NSCLC | ACHN renal | BT-549 breast | CAKI-1 renal | CCRF-CEM leukemia | COLO 205 colon | DU-145 prostate | EKVX NSCLC | HCT-116 colon | HCT-15 colon | HL-60(TB) leukemia | HOP-62 NSCLC | HOP-92 NSCLC | HS 578T breast | HT29 colon | IGROV1 ovarian | K-562 leukemia | KM12 colon | LOX IMVI melanoma | M14 melanoma | MALME-3M melanoma | MCF7 breast | MDA-MB-231 breast | MDA-MB-435 | MDA-N | MOLT-4 leukemia | NCI-H226 lung | NCI-H23 lung | NCI-H460 lung | NCI-H522 lung | NCI/ADR-RES ovarian | OVCAR-3 ovarian | OVCAR-4 ovarian | OVCAR-5 ovarian | OVCAR-8 ovarian | PC-3 prostate | RPMI-8226 leukemia | RXF 393 renal | SF-268 CNS | SF-295 CNS | SF-539 CNS | SK-MEL-2 melanoma | SK-MEL-28 melanoma | SK-MEL-5 melanoma | SK-OV-3 ovarian | SN12C renal | SNB-19 CNS | SNB-75 CNS | SR leukemia | SW-620 colon | T-47D breast | TK-10 renal | U251 CNS | UACC-257 melanoma | UACC-62 melanoma | UO-31 renal
